The target of the assay is T1, guinea pig trachea (NKA or [β-ala8]-NKA(4-10) as agonist) (Cavia porcellus, UniProt Q64077).
T1 construct: The trachea are removed, trimmed of excess tissue and divided into two segments; from tissue; host or cells: guinea pig trachea rings (male animals)
T1 sequence (Q64077 1-402): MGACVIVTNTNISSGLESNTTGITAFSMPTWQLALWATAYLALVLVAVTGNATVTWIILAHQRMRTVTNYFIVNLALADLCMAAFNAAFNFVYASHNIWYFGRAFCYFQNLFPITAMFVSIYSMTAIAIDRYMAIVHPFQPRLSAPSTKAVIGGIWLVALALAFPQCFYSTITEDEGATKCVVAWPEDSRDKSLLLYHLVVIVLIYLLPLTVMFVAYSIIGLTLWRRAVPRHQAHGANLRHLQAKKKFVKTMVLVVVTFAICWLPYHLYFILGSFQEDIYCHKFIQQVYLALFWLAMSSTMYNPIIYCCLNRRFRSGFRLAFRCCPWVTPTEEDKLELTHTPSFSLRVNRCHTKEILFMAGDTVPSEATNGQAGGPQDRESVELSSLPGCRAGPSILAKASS
Kind of assay: Guinea Pig Assay (Test B): antagonism of NKA or [β-ala8]-NKA(4-10) contraction in guinea pig trachea. Conditions: -log molar KB. The protocol:
In the test described below either NKA or [β-ala^8 ]-NKA(4-10) is used as an agonist. The chosen agonist is refered to as AG throughout the description.
Male guinea pigs are killed by a sharp blow to the back of the head. The trachea are removed, trimmed of excess tissue and divided into two segments. […] Initial tension placed on each tissue is 1 g, which is maintained throughout a 0.5 to 1.5 hour equilibration period before addition of other drugs. Contractile responses are measured on a Grass polygraph via Grass FT-03 force transducers.
Tissues are challenged repetitively with a single concentration of AG (10 nM) with intervening 30 min periods with washing to allow the tension to return to baseline levels. […] Percent inhibition is determined when a Compound produces a statistically significant (p<0.05) reduction of the contraction and is calculated using the second contractile response as 100%.
Potencies of selected Compounds are evaluated by calculating apparent dissociation constants (KB) for each concentration tested using the standard equation: […]
where dose ratio=antilog[(AG -log molar EC50 without Compound)--(AG -log molar EC50 with Compound)]. The KB values may be converted to the negative logarithms and expressed as -log molar KB (i.e. pKB). […] The EC50 values are converted to the negative logarithms and expressed as -log molar EC50. […]

By Kb is commonly meant the affinity of an antagonist, worked out from how it opposes an agonist. A high value points to lower antagonist affinity. Molecule `CC(=O)N(C1CCCCC1)C1CCN(CCC(CN(C)C(=O)c2ccccc2)c2ccc(Cl)c(Cl)c2)CC1` (stereo not shown) [Example 4, N-[4-[4-(N-Cyclohexylacetamido)piperidino]-2-(3,4-dichlorophenyl)butyl]-N-methylbenzamide] had a Kb of 20 nM.
